According to US20200069691A1, “HETEROCYCLIC COMPOUNDS AS HIV PROTEASE INHIBITORS” (Merck Sharp & Dohme Corp., priority 2016, published 2020):

Target: T1, wild-type HIV-1 protease (Human immunodeficiency virus type 1 group M subtype B, UniProt P04585)
T1 construct: Escherichia coli expressed wild-type HIV-1 protease protein
Experiment: Assay for Inhibition of Microbial Expressed HIV Protease (peptide substrate cleavage, LC-MS/MS readout)
Assay type: biochemical
Settings: E. coli expressed wild-type HIV-1 protease, mean of at least two independent experiments, read-out: HIV Pr Enzyme HIV1 PR IC50
How it was run: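 E. coli-expressed wild-type HIV-1 protease ([…]) was preincubated with inhibitor 30 min at room temperature in pH 5.5 acetate buffer (100 mM NaCl, 0.1% BSA). Then 400 μM octapeptide substrate was added and reacted 1 h at 30 °C; inhibition came from LC-MS/MS product peak areas, mean of ≥2 experiments.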

Compound | IC50 [nM]
N=C1NC(c2ccccc2)(c2ccccc2)C(=O)N1Cc1cccc(C(=O)N2Cc3cc(Cl)c(Cl)cc3C2)c1 [Compound 271, 3-{3-[(5,6-dichloro-1,3-dihydro-2H-isoindol-2-yl)carbonyl]benzyl}-2-imino-5,5-diphenylimidazolidin-4-one] | 27.9
CC(C)CC[C@]1(c2ccccc2)NC(=N)N([C@H](C)c2cccc(C(=O)N3CCN(C)C(=O)C3)c2)C1=O [Compound 272, 4-[(3-{(1R)-1-[2-imino-4-(3-methylbutyl)-5-oxo-4-phenylimidazolidin-1-yl]ethyl}phenyl)carbonyl]-1-methylpiperazin-2-one] | 28.3
N=C1NC(c2ccccc2)(c2ccc(-c3ccccc3)cc2)C(=O)N1Cc1cccc(C(=O)N2Cc3ccccc3C2)c1 (centres unmarked) [Compound 273, 5-biphenyl-4-yl-3-[3-(1,3-dihydro-2H-isoindol-2-ylcarbonyl)benzyl]-2-imino-5-phenylimidazolidin-4-one] | 28.5
Cc1nc2c([nH]1)CN(C(=O)c1cccc(CN3C(=N)NC(CC(C)C)(c4ccccc4)C3=O)c1)C2 (centres unmarked) [Compound 274, 2-imino-3-{3-[(2-methyl-4,6-dihydropyrrolo[3,4-d]imidazol-5(1H)-yl)carbonyl]benzyl}-5-(2-methylpropyl)-5-phenylimidazolidin-4-one] | 28.8
N=C1NC(c2ccc(F)cc2)(c2ccc(F)cc2)C(=O)N1Cc1cccc(C(=O)N2CCC(n3c(=O)[nH]c4ccc(F)nc43)CC2)c1 [Compound 276, 3-{1-[(3-{[4,4-bis(4-fluorophenyl)-2-imino-5-oxoimidazolidin-1-yl]methyl}phenyl)carbonyl]piperidin-4-yl}-5-fluoro-1,3-dihydro-2H-imidazo[4,5-b]pyridin-2-one] | 29.6
CC(C)CCC1(c2cccc(-c3cccnc3)c2)NC(=N)N(Cc2cccc(C(=O)N3Cc4ccccc4C3)c2)C1=O (centres unmarked) [Compound 277, 3-[3-(1,3-dihydro-2H-isoindol-2-ylcarbonyl)benzyl]-2-imino-5-(3-methylbutyl)-5-(3-pyridin-3-ylphenyl)imidazolidin-4-one] | 29.8
CCCC1(c2ccccc2)NC(=N)N(Cc2cccc(C(=O)N3Cc4nccnc4C3)c2)C1=O (centres unmarked) [Compound 278, 3-[3-(5,7-dihydro-6H-pyrrolo[3,4-b]pyrazin-6-ylcarbonyl)benzyl]-2-imino-5-phenyl-5-propylimidazolidin-4-one] | 182
COC(=O)N1CCN(C(=O)c2cccc([C@@H](C)N3C(=N)N[C@](CC(C)C)(c4ccccc4)C3=O)c2)CC1 [Compound 279, methyl 4-[(3-{(1R)-1-[2-imino-4-(2-methylpropyl)-5-oxo-4-phenylimidazolidin-1-yl]ethyl}phenyl)carbonyl] piperazine-1-carboxylate] | 30.5
N=C1NC(c2ccc(F)cc2)(c2ccc(F)cc2)C(=O)N1Cc1cccc(C(=O)N2CCN(c3ncccn3)CC2)c1 [Compound 280, 5,5-bis(4-fluorophenyl)-2-imino-3-{3-[(4-pyrimidin-2-ylpiperazin-1-yl)carbonyl]benzyl} imidazolidin-4-one] | 31
N=C1NC(c2ccccc2)(c2ccccc2)C(=O)N1Cc1cccc(C(=O)N2CCc3c(Cl)cccc3C2)c1 [Compound 281, 3-{3-[(5-chloro-3,4-dihydroisoquinolin-2(1H)-yl)carbonyl]benzyl}-2-imino-5,5-diphenylimidazolidin-4-one] | 31.1
CC1CN(C(=O)c2cccc(CN3C(=N)NC(c4ccccc4)(c4ccccc4)C3=O)c2)Cc2nnc(C(F)(F)F)n21 (centres unmarked) [Compound 282, 2-imino-3-(3-{[5-methyl-3-(trifluoromethyl)-5,6-dihydro[1,2,4]triazolo[4,3-a]pyrazin-7(8H)-yl]carbonyl}benzyl)-5,5-diphenylimidazolidin-4-one] | 31.4
CC(C)CCC1(c2ccccc2)NC(=N)N(Cc2cccc(C(=O)N3CCN(C)C(=O)C3)c2)C1=O (centres unmarked) [Compound 283, 4-[(3-{[2-imino-4-(3-methylbutyl)-5-oxo-4-phenylimidazolidin-1-yl]methyl}phenyl)carbonyl]-1-methylpiperazin-2-one] | 31.8
N=C1NC(c2ccc(F)cc2)(c2cccc(-c3cccnc3)c2)C(=O)N1Cc1cccc(C(=O)N2Cc3ccccc3C2)c1 (centres unmarked) [Compound 284, 3-[3-(1,3-dihydro-2H-isoindol-2-ylcarbonyl)benzyl]-5-(4-fluorophenyl)-2-imino-5-(3-pyridin-3-ylphenyl)imidazolidin-4-one] | 32.7
N=C1NC(c2ccc(F)cc2)(c2ccc(F)cc2)C(=O)N1Cc1cccc(C(=O)N2CCN(c3ccccn3)CC2)c1 [Compound 285, 5,5-bis(4-fluorophenyl)-2-imino-3-{3-[(4-pyridin-2-ylpiperazin-1-yl)carbonyl]benzyl} imidazolidin-4-one] | 33.3
N=C1NC(c2ccc(F)cc2)(c2ccc(F)cc2)C(=O)N1Cc1cccc(C(=O)N2Cc3cc(Cl)c(Cl)cc3C2)c1 [Compound 286, 3-{3-[(5,6-dichloro-1,3-dihydro-2H-isoindol-2-yl)carbonyl]benzyl}-5,5-bis(4-fluorophenyl)-2-iminoimidazolidin-4-one] | 33.7
COC(=O)C1c2ccccc2CN1C(=O)c1cccc(CN2C(=N)NC(c3ccccc3)(c3ccccc3)C2=O)c1 (centres unmarked) [Compound 287, methyl 2-({3-[(2-imino-5-oxo-4,4-diphenylimidazolidin-1-yl)methyl]phenyl}carbonyl)-2,3-dihydro-1H-isoindole-1-carboxylate] | 33.9
COC(=O)N1CCN(C(=O)c2cccc(CN3C(=N)NC(CC(C)C)(c4ccc(F)cc4)C3=O)c2)CC1 (centres unmarked) [Compound 288, methyl 4-[(3-{[4-(4-fluorophenyl)-2-imino-4-(2-methylpropyl)-5-oxoimidazolidin-1-yl]methyl}phenyl)carbonyl] piperazine-1-carboxylate] | 35.3
N=C1NC(c2ccc(F)cc2)(c2cccc(Br)c2)C(=O)N1Cc1cccc(C(=O)N2Cc3ccccc3C2)c1 (centres unmarked) [Compound 289, 5-(3-bromophenyl)-3-[3-(1,3-dihydro-2H-isoindol-2-ylcarbonyl)benzyl]-5-(4-fluorophenyl)-2-iminoimidazolidin-4-one] | 36.1
Cc1ncc2c(n1)CN(C(=O)c1cccc(CN3C(=N)NC(c4ccccc4)(c4ccccc4)C3=O)c1)C2 [Compound 290, 2-imino-3-{3-[(2-methyl-5,7-dihydro-6H-pyrrolo[3,4-d]pyrimidin-6-yl)carbonyl]benzyl}-5,5-diphenylimidazolidin-4-one] | 36.3
N=C1NC(c2ccccc2)(c2ccccc2)C(=O)N1Cc1cccc(C(=O)N2CCn3c(nnc3C(F)(F)F)C2)c1 [Compound 291, 2-imino-5,5-diphenyl-3-(3-{[3-(trifluoromethyl)-5,6-dihydro[1,2,4]triazolo[4,3-a]pyrazin-7(8H)-yl]carbonyl}benzyl) imidazolidin-4-one] | 37.9
N#Cc1cccc(-c2cccc(C3(c4ccc(F)cc4)NC(=N)N(Cc4cccc(C(=O)N5Cc6ccccc6C5)c4)C3=O)c2)c1 (centres unmarked) [Compound 292, 3′-{1-[3-(1,3-dihydro-2H-isoindol-2-ylcarbonyl)benzyl]-4-(4-fluorophenyl)-2-imino-5-oxoimidazolidin-4-yl}biphenyl-3-carbonitrile] | 39
CC(C)NC(=O)N1CCN(C(=O)c2cc(F)cc(CN3C(=N)NC(c4ccccc4)(c4ccccc4)C3=O)c2)CC1 [Compound 293, 4-({3-fluoro-5-[(2-imino-5-oxo-4,4-diphenylimidazolidin-1-yl)methyl]phenyl}carbonyl)-N-(1-methylethyl) piperazine-1-carboxamide] | 39.2
N=C1NC(c2ccc(F)cc2)(c2cccc(C(N)=O)c2)C(=O)N1Cc1cccc(C(=O)N2Cc3ccccc3C2)c1 (centres unmarked) [Compound 294, 3-{1-[3-(1,3-dihydro-2H-isoindol-2-ylcarbonyl)benzyl]-4-(4-fluorophenyl)-2-imino-5-oxoimidazolidin-4-yl}benzamide] | 39.8
N=C1NC(c2ccccc2)(c2ccccc2)C(=O)N1Cc1cccc(C(=O)N2CCc3nccnc3C2)c1 [Compound 295, 3-[3-(7,8-dihydropyrido[3,4-b]pyrazin-6(5H)-ylcarbonyl)benzyl]-2-imino-5,5-diphenylimidazolidin-4-one] | 40.1
N=C1NC(c2ccccc2)(c2ccccc2)C(=O)N1Cc1cc(F)cc(C(=O)N2Cc3ccccc3C2)c1 [Compound 296, 3-[3-(1,3-dihydro-2H-isoindol-2-ylcarbonyl)-5-fluorobenzyl]-2-imino-5,5-diphenylimidazolidin-4-one] | 40.3
C=Cc1c(C(F)(F)F)nc2n1CCN(C(=O)c1cccc(CN3C(=N)NC(c4ccccc4)(c4ccccc4)C3=O)c1)C2 [Compound 297, 3-(3-{[3-ethenyl-2-(trifluoromethyl)-5,6-dihydroimidazo [1,2-a]pyrazin-7(8H)-yl]carbonyl}benzyl)-2-imino-5,5-diphenylimidazolidin-4-one] | 43.5
COC(=O)N1CCN(C(=O)c2cc(F)cc(CN3C(=N)NC(c4ccccc4)(c4ccccc4)C3=O)c2)CC1 [Compound 298, methyl 4-({3-fluoro-5-[(2-imino-5-oxo-4,4-diphenylimidazolidin-1-yl)methyl]phenyl}carbonyl) piperazine-1-carboxylate] | 43.5
CN(C)C(=O)C1c2ccccc2CN1C(=O)c1cccc(CN2C(=N)NC(c3ccccc3)(c3ccccc3)C2=O)c1 (centres unmarked) [Compound 299, 2-({3-[(2-imino-5-oxo-4,4-diphenylimidazolidin-1-yl)methyl]phenyl}carbonyl)-N,N-dimethyl-2,3-dihydro-1H-isoindole-1-carboxamide] | 43.9
CC1(C)CN(C(=O)c2cccc(CN3C(=N)NC(c4ccccc4)(c4ccccc4)C3=O)c2)Cc2nnc(C(F)(F)F)n21 [Compound 300, 3-(3-{[5,5-dimethyl-3-(trifluoromethyl)-5,6-dihydro[1,2,4]triazolo[4,3-a]pyrazin-7(8H)-yl]carbonyl}benzyl)-2-imino-5,5-diphenylimidazolidin-4-one] | 44
